The target of this assay is T1, Glucocorticoid receptor (Homo sapiens, UniProt P04150).
T1 sequence (P04150 whole entry): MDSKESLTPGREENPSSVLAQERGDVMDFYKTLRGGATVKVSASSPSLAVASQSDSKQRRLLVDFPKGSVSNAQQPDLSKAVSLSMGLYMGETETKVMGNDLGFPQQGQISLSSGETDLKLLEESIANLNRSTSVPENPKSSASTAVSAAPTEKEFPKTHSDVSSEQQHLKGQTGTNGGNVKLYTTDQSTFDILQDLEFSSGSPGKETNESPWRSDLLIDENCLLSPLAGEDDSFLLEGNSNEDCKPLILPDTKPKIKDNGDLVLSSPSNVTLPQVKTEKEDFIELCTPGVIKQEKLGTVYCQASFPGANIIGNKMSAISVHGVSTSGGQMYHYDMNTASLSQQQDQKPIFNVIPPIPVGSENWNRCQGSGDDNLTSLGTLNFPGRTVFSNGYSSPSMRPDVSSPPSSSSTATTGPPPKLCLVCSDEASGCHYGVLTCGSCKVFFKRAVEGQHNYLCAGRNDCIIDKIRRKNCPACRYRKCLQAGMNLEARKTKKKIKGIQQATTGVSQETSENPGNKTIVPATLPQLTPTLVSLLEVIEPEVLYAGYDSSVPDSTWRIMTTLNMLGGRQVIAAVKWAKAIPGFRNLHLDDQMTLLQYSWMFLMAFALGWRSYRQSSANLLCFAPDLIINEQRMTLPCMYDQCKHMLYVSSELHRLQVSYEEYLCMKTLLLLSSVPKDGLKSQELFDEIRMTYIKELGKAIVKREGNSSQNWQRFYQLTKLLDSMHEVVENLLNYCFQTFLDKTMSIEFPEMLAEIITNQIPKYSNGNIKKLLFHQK
Description: Binding affinity to human glucocorticoid receptor by fluorescence polarization competitive binding assay
Take `OC(c1ccc2c(cnn2-c2ccc(F)cc2)c1)(c1ccccc1F)C(F)(F)F` (stereo unspecified): the IC50 (as a rule, the concentration at which inhibition is half-maximal) is 0.054 µM. This lies in the double-digit nanomolar range.
For `OC(c1ccc(Cl)c(Cl)c1)(c1ccc2c(cnn2-c2ccc(F)cc2)c1)C(F)(F)F` (stereo unspecified), it took 0.178 µM to reach half-maximal inhibition (IC50).
In turn, `OC(c1ccc2c(cnn2-c2ccc(F)cc2)c1)(c1cccc(Cl)c1Cl)C(F)(F)F` (stereo in doubt; 23) [1-(2,3-DICHLOROPHENYL)-2,2,2-TRIFLUORO-1-(1-(4-FLUOROPHENYL)-1H-INDAZOL-5-YL)ETHANOL (ENANTIOMERIC MIX)] showed an IC50 of 0.087 µM.
The molecule `Cc1ccc(C(O)(c2ccc3c(cnn3-c3ccc(F)cc3)c2)C(F)(F)F)cc1` (stereo unspecified) displayed an IC50 of 2.09 µM.
In turn, `OC(c1ccc(F)cc1)(c1ccc2c(cnn2-c2ccc(F)cc2)c1)C(F)(F)F` (single isomer, unassigned; (-)) [2,2,2-TRIFLUORO-1-(4-FLUOROPHENYL)-1-(1-(4-FLUOROPHENYL)-1H-INDAZOL-5-YL)ETHANOL (DIASTEREOMERIC MIX)] returned an IC50 of 0.086 µM.
`Cc1ccccc1C(O)(c1ccc2c(cnn2-c2ccc(F)cc2)c1)C(F)(F)F` (stereo unspecified): the midpoint of inhibition, the IC50, lay at 0.282 µM. Compared with the last molecule, the IC50 is about 3.3-fold higher.
On to `OC(c1ccc2c(cnn2-c2ccc(F)cc2)c1)(c1ccccc1Cl)C(F)(F)F` (stereo unspecified), for which the IC50 stood at 0.035 µM.
For `N#Cc1cccc(C(O)(c2ccc3c(cnn3-c3ccc(F)cc3)c2)C(F)(F)F)c1` (stereo unspecified) the value was 0.099 µM; for `OC(c1ccc(F)cc1)(c1ccc2c(cnn2-c2ccc(F)cc2)c1)C(F)(F)F` (stereo in doubt; 12) [2,2,2-TRIFLUORO-1-(4-FLUOROPHENYL)-1-(1-(4-FLUOROPHENYL)-1H-INDAZOL-5-YL)ETHANOL (DIASTEREOMERIC MIX)], 0.161 µM; for `OC(c1ccc(F)c(Cl)c1)(c1ccc2c(cnn2-c2ccc(F)cc2)c1)C(F)(F)F` (stereo in doubt; 18) [1-(3-CHLORO-4-FLUOROPHENYL)-2,2,2-TRIFLUORO-1-(1-(4-FLUOROPHENYL)-1H-INDAZOL-5-YL)ETHANOL (ENANTIOMERIC MIX)], 0.117 µM.
As for `N#Cc1cc(C(O)(c2ccc3c(cnn3-c3ccc(F)cc3)c2)C(F)(F)F)ccc1F` (stereo unspecified), inhibition was half-maximal at 0.03 µM (IC50). Against the preceding molecule, the IC50 is about 3.9-fold lower.
In the case of `OC(c1cccc(Cl)c1)(c1ccc2c(cnn2-c2ccc(F)cc2)c1)C(F)(F)F` (stereo unspecified) it was 0.072 µM; in that of `OC(c1ccc(F)cc1)c1ccc2c(cnn2-c2ccc(F)cc2)c1` (stereo unspecified), 10 µM.
For `OC(c1ccc(F)cc1)(c1ccc2c(cnn2-c2ccc(F)cc2)c1)C(F)(F)F` (single isomer, unassigned; (+)) [2,2,2-TRIFLUORO-1-(4-FLUOROPHENYL)-1-(1-(4-FLUOROPHENYL)-1H-INDAZOL-5-YL)ETHANOL (DIASTEREOMERIC MIX)] the value was 3 µM; for `CC(O)(c1ccc(F)cc1)c1ccc2c(cnn2-c2ccc(F)cc2)c1` (stereo unspecified), 2.11 µM; for `Cc1cccc(C(O)(c2ccc3c(cnn3-c3ccc(F)cc3)c2)C(F)(F)F)c1` (stereo unspecified), 0.052 µM.

(Values after ChEMBL document CHEMBL1157802, “5-Functionalized indazoles as glucocorticoid receptor agonists” (Bioorg Med Chem Lett, 2010).)
